Experimental data as given in US6552010B1 (Genelabs Technologies, Inc., priority 1999, dated 2003).

Legend:
[1] = Stability of DHEA polymorph preparations under ambient conditions
[2] = Uptake and absorption of DHEA polymorph preparations upon oral administration
SLE patients [3] = test: Clinical trial: responders by window analysis of SLEDAI, SLAM, Patient VAS and KFSS; type: in vivo, human; conditions: for Responders (3% window), number of patients / Responders (3% window), percent / Responders (5% window), number of patients / Responders (5% window), percent / Responders (10% window), number of patients / Responders (10% window), percent: 200 mg DHEA per day orally
Experimental: For each of the disease activity variables (SLEDAI and SLAM) and constitutional symptom variables (Patient VAS and KFSS), the value of interest for each patient is determined as the difference between a pretreatment baseline value, calculated as the mean of two baseline values, taken prior to any treatment with DHEA), and values taken during treatment, calculated as the mean of all values obtained during on-treatment scheduled visits, e.g., 13, 26, 39, and 52 weeks of treatment.
For each of the variables, an improvement in the variable is defined as either (i) no change in the variable or (ii) a decrease in the variable. Thus, for example, an improvement in a baseline SLEDAI score of 5.00 would be any value 5.00 or less. A change in a variable that represents a worsening of the state or condition is any increase in the measured value.
Thus, for a baseline SLEDAI value of 5.0, and a 3% cap, the maximum allowed increase in SLEDAI value, for classification as a 3% responder is 0.15
The mean baseline scores represent the mean of two value determinations made prior to treatment.
Each group, in turn, can be broken down into three subgroups: (I) total patient population (II) all patients with SLEDAI values greater than 2, and (III) patients having SLEDAI values greater than 2 and currently being treated with prednisone (at dose greater than 2 mg/prednisone /day), where the number of patients in each subgroup is indicated by N in the Table 5.
(§1) Treatment was with 200 mg DHEA per day, administered orally in capsule form, or with a non-drug capsule (placebo). Mean duration of the treatment for each group was somewhat higher for the placebo group (308 days for placebo vs 288.4 days for DHEA, but median durations were almost the identical (362 vs. 359 days, respectively.).
The three columns in the table represent total of the three subgroups for both the placebo and treatment group. The three rows represent responders in which an improvement (no change or decrease in value) in three the three of the four variables was observed and an increase in the fourth variable of no more than 3% (first row), 5% (second row), and 10% (third row) of the pretreatment baseline value.

SLE patients [4] = test: Clinical trial: percent responders (weighted average change from baseline, no clinical deterioration); type: in vivo, human; conditions: 200 mg DHEA per day orally
Experimental: (§2) Clinical trial results were analyzed for each group (placebo and DHEA-treated) as a whole (“per-protocol”), as well as broken down into three subgroups: all patients with SLEDAI values greater than 2 (“active SLE”), and patients having SLEDAI values greater than 2 and receiving corticosteroids and/or immunosuppressives (“more severe SLE”).
as §1, with “Patients received” for “Treatment was with”, “(308.4” for “(308”
The last three columns of the table show the results of the study for patients experiencing at least one flare during the study.

SLE patients [5] = test: Clinical trial: effect of DHEA treatment on SLE flares; type: in vivo, human; conditions: for Patients with at least one flare, patients/total / Patients with at least one flare, percent: 200 mg DHEA per day orally
Experimental: A clinical trial was conducted to determine the effect of DHEA treatment on SLE flares. An SLE flare is a significant new clinical manifestation of the disease (i.e., one that was not previously present in the patient or not previously as severe) and/or a clinical intervention. Table 6 identifies the clinical findings or interventions that were scored as flares in the present study. Any patient having at least one of these finding or interventions was scored as having a flare.
as §2
as §1, with “Patients received” for “Treatment was with”, “(308.4” for “(308”
At about 200 days of treatment, incidence of flare is at least about 5% lower in the treated patients, and from this point on, the difference in flare incidence between the treated and placebo patients grows to at least about 10%.

[6] = Group II: All patients with SLEDAI > 2
[7] = Group II: All patients with SLEDAI > 2, N = 132
[8] = Group III: All patients with SLEDAI > 2, Pred > 0
[9] = Group III: All patients with SLEDAI > 2, Pred > 0, N = 73
[10] = Active SLE (SLEDAI > 2 at baseline)
[11] = More Severe SLE (SLEDAI > 2 and receiving corticosteroids and/or immunosuppressives at baseline)

C[C@]12CC[C@H](O)CC1=CC[C@@H]1[C@@H]2CC[C@]2(C)C(=O)CC[C@@H]12 [DHEA form I, dehydroepiandrosterone]
Stability [1]: highly stable under ambient conditions | Uptake by the GI tract [2]: good uptake by the GI tract

C[C@]12CC[C@H](O)CC1=CC[C@@H]1[C@@H]2CC[C@]2(C)C(=O)CC[C@@H]12 [DHEA form II, dehydroepiandrosterone]
Stability [1]: stable under ambient conditions | Rate of absorption [2]: rapid rate of absorption (greater than the form I polymorph) | Uptake by the GI tract [2]: good uptake by the GI tract

C[C@]12CC[C@H](O)CC1=CC[C@@H]1[C@@H]2CC[C@]2(C)C(=O)CC[C@@H]12 [DHEA, dehydroepiandrosterone]
Improvement over placebo, responders (3% window) (SLE patients [3]; Group I: All patients): 39.8% | Improvement over placebo, responders (5% window) (SLE patients [3]; Group I: All patients): 32.1% | Improvement over placebo, responders (10% window) (SLE patients [3]; Group I: All patients): 38.0% | Responders (3% window), number of patients (SLE patients [3]; Group I: All patients, N = 170): 77 | Responders (3% window), percent (SLE patients [3]; Group I: All patients, N = 170): 45.3% | Responders (5% window), number of patients (SLE patients [3]; Group I: All patients, N = 170): 79 | Responders (5% window), percent (SLE patients [3]; Group I: All patients, N = 170): 46.5% | Responders (10% window), number of patients (SLE patients [3]; Group I: All patients, N = 170): 92 | Responders (10% window), percent (SLE patients [3]; Group I: All patients, N = 170): 54.1% | Improvement over placebo, responders (3% window) (SLE patients [3]; [6]): 54.4% | Improvement over placebo, responders (5% window) (SLE patients [3]; [6]): 47.1% | Improvement over placebo, responders (10% window) (SLE patients [3]; [6]): 51.1% | Responders (3% window), number of patients (SLE patients [3]; [7]): 72 | Responders (3% window), percent (SLE patients [3]; [7]): 54.5% | Responders (5% window), number of patients (SLE patients [3]; [7]): 73 | Responders (5% window), percent (SLE patients [3]; [7]): 55.3% | Responders (10% window), number of patients (SLE patients [3]; [7]): 84 | Responders (10% window), percent (SLE patients [3]; [7]): 63.6% | Improvement over placebo, responders (3% window) (SLE patients [3]; [8]): 64.3% | Improvement over placebo, responders (5% window) (SLE patients [3]; [8]): 68.6% | Improvement over placebo, responders (10% window) (SLE patients [3]; [8]): 82.2% | Responders (3% window), number of patients (SLE patients [3]; [9]): 39 | Responders (3% window), percent (SLE patients [3]; [9]): 53.4% | Responders (5% window), number of patients (SLE patients [3]; [9]): 40 | Responders (5% window), percent (SLE patients [3]; [9]): 54.8% | Responders (10% window), number of patients (SLE patients [3]; [9]): 45 | Responders (10% window), percent (SLE patients [3]; [9]): 61.6% | Responders, patients/total (SLE patients [4]; [10]): (87/132) | Responders, percent (SLE patients [4]; [10]): 66% | Responders, patients/total (SLE patients [4]; [11]): (51/80) | Responders, percent (SLE patients [4]; [11]): 64% | Responders, patients/total (SLE patients [4]; Per Protocol population): (99/170) | Responders, percent (SLE patients [4]; Per Protocol population): 58% | Patients with at least one flare, patients/total (SLE patients [5]; [10]): (31/132) | Patients with at least one flare, percent (SLE patients [5]; [10]): 24% | Time of treatment at which reduction of the risk of flare begins (SLE patients [5]; FIG. 1, active SLE patients, compared to the placebo group): about 85 days | Incidence of flare lower in treated patients than placebo (SLE patients [5]; FIG. 1, at about 200 days of treatment): at least 5% | Difference in flare incidence between treated and placebo patients (SLE patients [5]; FIG. 1, grows to this after about 200 days of treatment): at least 10% | Patients with at least one flare, patients/total (SLE patients [5]; [11]): (21/80) | Patients with at least one flare, percent (SLE patients [5]; [11]): 26% | Patients with at least one flare, patients/total (SLE patients [5]; Per Protocol population): (37/170) | Patients with at least one flare, percent (SLE patients [5]; Per Protocol population): 22% | Effect on occurrence of flares (SLE patients [5]; Table 8 study, effect increased with severity of disease): reduced the occurrence of flares
